Data published in patent US20240115672A1, “TREATMENT OF AN IOP CONDITION” (THE RESEARCH FOUNDATION FOR THE STATE UNIVERSITY OF NEW YORK, priority 2021, published 2024).

How the values were obtained:
[1] = system: MMP-2, MMP-9, MMP-13 expression in HTM cells; assay: MMP expression in HTM cells (Examples 17, 18); type: cell-based, human; conditions: for MMP-9 expression compared to PA+NE-tPA treated cells: p<0.0001
[2] = system: sheep of the Coriedale breed; assay: IOP in prednisolone-treated sheep after tPA injection into the anterior chamber (Example 9); type: in vivo
Procedure: Methods. Lyophilized IPA, obtained as Acetilyse® from Boehringer Ingelheim S.A. (Buenos Aires) containing arginine. was used. Five sheep of the Coriedale breed were selected. Initially all eyes received instillation of 1% prednisolone 3 times/day for 10 days to elevate their IOP from 10 mm Hg to about 23 mm Hg. Then, 0.0001 μg was injected into one of the eyes and its effect was followed for up to 55:00 hrs while the instillation of prednisolone continued in both eyes. The same protocol was implemented for the 0.001 and 0.01 μg amounts (after extended washout) in the contra lateral eyes. Arginine, which is associated with 0.01 ug tPA, was injected alone and had no effect.

[3] = system: Mmp-2, Mmp-9, Mmp-13 mRNA in angle ring tissues; assay: Mmp expression in Tg-MYOCY437H angle ring tissues (Example 19); type: in vivo, mouse; conditions: 5 days treatment
Procedure: Eyes were flash frozen in liquid nitrogen after outflow facility determination and subsequently dissected on ice to obtain the angle ring tissues containing the TM, as previously described (Kumar, Shah et al. 2013). Dissected TM tissues were immersed in RNAlater solution (Invitrogen, Waltham, MA, USA) and then snap-frozen and stored at −80° C. until RNA extraction. Tissue collected was pooled (four eyes) and homogenized in TRIzol reagent for RNA isolation, per manufacturer's instructions (Life Technologies, Carlsbad, CA, USA). RNA concentration was determined with a Nanodrop ND-1000 Spectrophotometer (Thermo Scientific, Wilmington, DE, USA). cDNA was synthesized by using High-Capacity cDNA
Reverse Transcription Kit (Applied Biosystems, Waltham, MA, USA) according to manufacturer's protocol. Quantitative real-time PCR (qRT-PCR) was performed by using Green-2-Go qPCR Mastermix-ROX (Bio Basic, Amherst, NY, USA) on a QuantStudio 6 Flex thermal cycler (Applied Biosystems, Carlsbad, CA, USA). mRNA expression of Plat, Plait, Pai-1, Mmp-2, Mmp-9, and Mmp-13 in angle ring tissues was determined. Primers were designed by using Primer-BLAST (haps://www.ncbi.nlm.nih.gov/tools/primer-blast/index.cgi?LINK_LOC=BlastHome; in the public domain); primer sequences are listed in Table 2. Primer specificity was confirmed by agarose gel electrophoresis and multiple-sized amplification products were absent on inspection of melting curves. Target mRNA expression values were normalized to the expression levels of Rps11 (ribosomal protein S11). The relative fold change was calculated by using the ΔΔCt method (Hu, Wang et al. 2015). Outliers identified via the Thompson Tau test were removed from analysis.

[4] = system: Tg-MYOCY437H mice; conditions: systemic and topical administration; cited from earlier work
[5] = system: sheep; assay: Sheep given tPA or arginine concurrently with prednisolone (Example 3 Protocol 2, Example 4); type: in vivo; conditions: 4.23 mg arginine intravitreal plus prednisolone (OS) compared to tPA and prednisolone (OD)
Procedure: Protocol 2. In a second set of experiments, arginine was added to the BSS vehicle administered to the left eye to control for the relatively high concentration of the amino acid in the commercially available tPA lyophilisate. In these experiments all right eyes received 0.1 mg tPA, which concomitantly delivered 4.23 mg of arginine into the vitreous, and the left eye received this same amount of arginine, absent the tPA. On Day 1, prednisolone treatments were also begun simultaneously on both eyes.
Methods. In this experiment, the inventor sought to detect the effects of tPA treatment on prevention of steroid-induced IOP elevation. In 4 sheep tPA was injected in one eye (100 μg) and they were started on prednisolone acetate three times a day in both eyes. Animals were monitored for 11 days on continuous treatment.

C[C@]12N[C@H](Cc3ccccc31)c1ccccc12 [MK-801]
MMP-9 expression compared to PA+NE-tPA treated cells ([1]; inhibitor added to PA+NE-tPA): significantly lower | MMP-2 expression compared to PA+NE-tPA treatment ([1]; inhibitor added to PA+NE-tPA, p<0.05): significant reduction

CC(=O)OCC(=O)[C@@]1(O)CC[C@H]2[C@@H]3CCC4=CC(=O)C=C[C@]4(C)[C@H]3[C@@H](O)C[C@@]21C [prednisolone, prednisolone acetate]
IOP after prednisolone ([2]; 1% prednisolone 3 times/day for 10 days, from 10 mm Hg): about 23 mm Hg | MMP-13 expression (FIG. 17D) ([1]; PA treated HTM cells): below detection limits

O=C([O-])CCCc1ccccc1.[Na+] [PBA, sodium phenylbutarate]
Mmp-9 expression compared to BSA treated eyes [3]: higher | Mmp-13 expression compared to BSA treated eyes [3]: did not show any difference | Mmp-2 expression compared to BSA treated eyes ([3]; p>0.05): no significant difference | effect on IOP [4]: effective in reducing IOP

N=C(N)NCCC[C@H](N)C(=O)O [arginine]
effect of arginine alone [5]: failed to reduce outflow facility | effect of arginine injected alone ([2]; amount associated with 0.01 ug tPA): no effect

B1: RAP: inhibitor of LRP1 (protein, UniProt P30533 35-357, looked up)
Alpha-2-macroglobulin …: YSREKNQPKPSPKRESGEEFRMEKLNQLWEKAQRLHLPPVRLAELHADLKIQERDELAWKKLKLDGLDEDGEKEARLIRNLNVILAKYGLDGKKDARQVTSNSLSGTQEDGLDDPRLEKLWHKAKTSGKFSGEELDKLWREFLHHKEKVHEYNVLLETLSRTEEIHENVISPSDLSDIKGSVLHSRHTELKEKLRSINQGLDRLRRVSHQGYSTEAEFEEPRVIDLWDLAQSANLTDKELEAFREELKHFEAKIEKHNHYQKQLEIAHEKLRHAESVGDGERVSRSREKHALLEGRTKELGYTVKKHLQDLSGRISRARHNEL
MMP-9 expression compared to PA+NE-tPA treated cells ([1]; inhibitor added to PA+NE-tPA): significantly lower
